In US8921059B2, “Method and kit for detection of guaiacol-producing bacterium” (Calpis Co., Ltd., priority 2009, dated 2014):
“Also recorded” adds a separate entry of the source.

What was measured:
[1] = test system: A. acidiphilus JCM21417; test: Colony formation of thermotolerant acidophilic bacteria on YSG agar medium containing the substrate (Example 1); format: cell-based, Alicyclobacillus acidiphilus; design: key to detected level of colonies: ++: the detected level was at or above the level of the medium without a substrate (i.e. YSG medium); +: the detected level was lower than the level of the medium without a substrate; −: undetectable; details: for detected level of colonies: cultivation at 45° C. for 3 days
Experimental: (§1) A YSG agar medium containing vanillin, vanillic acid or ferulic acid was used to study the colony formation of thermotolerant acidophilic bacteria (TAB). Four bacterial strains used were A. acidoterrestris ATCC49025, A. acidiphilus JCM21417, A. acidocaldarius ATCC27009 and A. pomorum JCM21459. Among these, A. acidoterrestris ATCC49025 and A. acidiphilus JCM21417 have been reported as the bacterial strains producing guaiacol. […] After cooling to about 50° C., pH was adjusted to 3.7 with 10% sulfuric acid and a plate medium was prepared. The suspensions of the respective bacterial strains were subjected to a heat-shock treatment at 70° C. for 20 min. The bacterial suspensions were serially diluted with phosphate buffered saline up to 10^3 CFU/mL and 100 μL from the dilutions was smeared on the plates for culture. Cultivation was carried out at 45° C. for 3 days before the colonies formed were visually inspected. Similar experiments were carried out with replacing vanillic acid with vanillin or ferulic acid. When the medium was not easily solidified, the amount of agar was appropriately adjusted.

[2] = test system: A. acidoterrestris ATCC49025; test: Effects of culture temperature on the detection level of colonies (Example 2); format: cell-based, Alicyclobacillus acidoterrestris; details: for number of colonies, relative value (YSG medium without any substrate at 45° C. for 3 days = 100): 75 ppm in YSG medium
Experimental: Effects of culture temperature on the detection level of colonies of A. acidoterrestris ATCC49025 were studied using YSG agar medium containing vanillin, vanillic acid or ferulic acid. […] The suspensions containing the same number of bacterial cells of A. acidoterrestris ATCC49025 were smeared on the plates and cultured at 45° C. or 30° C. A YSG medium without any substrate was used as a control. The values are expressed as relative values to the number of colonies obtained after cultivation at 45° C. for 3 days in a YSG medium without any substrate being regarded as 100.

[3] = test system: A. acidoterrestris ATCC49025; test: Colony formation of thermotolerant acidophilic bacteria on YSG agar medium containing the substrate (Example 1); format: cell-based, Alicyclobacillus acidoterrestris; design: key to detected level of colonies: ++: the detected level was at or above the level of the medium without a substrate (i.e. YSG medium); +: the detected level was lower than the level of the medium without a substrate; −: undetectable; details: for detected level of colonies: cultivation at 45° C. for 3 days
Source text: A YSG agar medium containing vanillin, vanillic acid or ferulic acid was used to study the colony formation of thermotolerant acidophilic bacteria (TAB). Four bacterial strains used were A. acidoterrestris ATCC49025, A. acidiphilus JCM21417, A. acidocaldarius ATCC27009 and A. pomorum JCM21459. Among these, A. acidoterrestris ATCC49025 and A. acidiphilus JCM21417 have been reported as the bacterial strains producing guaiacol. A YSG medium (Merck K.K., YGS Agar; 20.0 g) and vanillic acid (Wako Pure Chemical Industries, Ltd.; 0 to 250 mg) were dissolved in 1000 g of water with heating and subjected to autoclave sterilization (121° C. and 15 min.). After cooling to about 50° C., pH was adjusted to 3.7 with 10% sulfuric acid and a plate medium was prepared. The suspensions of the respective bacterial strains were subjected to a heat-shock treatment at 70° C. for 20 min. The bacterial suspensions were serially diluted with phosphate buffered saline up to 10^3 CFU/mL and 100 μL from the dilutions was smeared on the plates for culture. Cultivation was carried out at 45° C. for 3 days before the colonies formed were visually inspected. Similar experiments were carried out with replacing vanillic acid with vanillin or ferulic acid. When the medium was not easily solidified, the amount of agar was appropriately adjusted.

[4] = test system: A. pomorum JCM21459; test: as above; format: cell-based, Alicyclobacillus pomorum; design: key to detected level of colonies: ++: the detected level was at or above the level of the medium without a substrate (i.e. YSG medium); +: the detected level was lower than the level of the medium without a substrate; −: undetectable; details: for detected level of colonies: cultivation at 45° C. for 3 days; for colonies detected: 45° C. for 3 days
Experimental: as §1

[5] = test system: A. acidocaldarius ATCC27009; test: as above; format: cell-based, Alicyclobacillus acidocaldarius; design: key to detected level of colonies: ++: the detected level was at or above the level of the medium without a substrate (i.e. YSG medium); +: the detected level was lower than the level of the medium without a substrate; −: undetectable; details: for detected level of colonies: cultivation at 45° C. for 3 days; for colonies detected: 45° C. for 3 days
Experimental: as §1

[6] = used instead of vanillic acid, concentration not given

COc1cc(/C=C/C(=O)O)ccc1O [ferulic acid]
detected level of colonies ([1]; 25 ppm in YSG agar): ++
detected level of colonies ([1]; 50 ppm in YSG agar): −
detected level of colonies ([1]; 75 ppm in YSG agar): −
detection sensitivity compared to the medium without any substrate ([2]; 25 ppm): improved
number of colonies at 30° C. for 5 days compared with 45° C. for 3 days [2, 6]: The same tendency was observed
detected level of colonies ([3]; 25 ppm in YSG agar): ++
detected level of colonies ([3]; 50 ppm in YSG agar): ++
detected level of colonies ([3]; 75 ppm in YSG agar): −
detected level of colonies ([4]; 25 ppm in YSG agar): −
detected level of colonies ([4]; 50 ppm in YSG agar): −
detected level of colonies ([4]; 75 ppm in YSG agar): −
detected level of colonies ([5]; 25 ppm in YSG agar): −
detected level of colonies ([5]; 50 ppm in YSG agar): −
detected level of colonies ([5]; 75 ppm in YSG agar): −

COc1cc(C(=O)O)ccc1O [vanillic acid]
detected level of colonies ([1]; 10 ppm in YSG agar): ++
detected level of colonies ([1]; 50 ppm in YSG agar): ++
detected level of colonies ([1]; 75 ppm in YSG agar): ++
colonies detected compared with medium without vanillic acid ([1]; 75 ppm, 45° C. for 3 days): the same level or more colonies were detected as in the medium without vanillic acid
detected level of colonies ([1]; 100 ppm in YSG agar): −
colonies detected ([1]; 100 ppm, 45° C. for 3 days): no colony was detected
detected level of colonies ([1]; 150 ppm in YSG agar): −
detected level of colonies ([1]; 200 ppm in YSG agar): −
detected level of colonies ([1]; 225 ppm in YSG agar): −
detected level of colonies ([1]; 250 ppm in YSG agar): −
detection sensitivity compared to the medium without any substrate ([2]; 50 ppm): improved
number of colonies, relative value (YSG medium without any substrate at 45° C. for 3 days = 100) ([2]; 30° C., 5 days): 186
number of colonies, relative value (YSG medium without any substrate at 45° C. for 3 days = 100) ([2]; 45° C., 3 days): 183
number of colonies at 30° C. for 5 days compared with 45° C. for 3 days ([2]; 75 ppm in solid medium): the same number of colonies is obtained; also recorded: almost the same number of colonies was detected
colonies detected compared to the medium without any substrate ([2]; 75 ppm, 45° C.): more colonies were detected
detected level of colonies ([3]; 10 ppm in YSG agar): ++
detected level of colonies ([3]; 50 ppm in YSG agar): ++
detected level of colonies ([3]; 75 ppm in YSG agar): ++
colonies detected compared with medium without vanillic acid ([3]; 75 ppm, 45° C. for 3 days): the same level or more colonies were detected as in the medium without vanillic acid
detected level of colonies ([3]; 100 ppm in YSG agar): ++
colonies detected compared with medium without vanillic acid ([3]; 100 ppm, 45° C. for 3 days): the same level or more colonies were detected as in the medium without vanillic acid
detected level of colonies ([3]; 150 ppm in YSG agar): ++
colonies detected compared with medium without vanillic acid ([3]; 150 ppm, 45° C. for 3 days): detected at the same level as in the medium without vanillic acid
detected level of colonies ([3]; 200 ppm in YSG agar): ++
colonies detected compared with medium without vanillic acid ([3]; 200 ppm, 45° C. for 3 days): detected at the same level as in the medium without vanillic acid
detected level of colonies ([3]; 225 ppm in YSG agar): +
detection sensitivity of AAT ([3]; 225 ppm, 45° C. for 3 days): lower
detected level of colonies ([3]; 250 ppm in YSG agar): −
colonies detected ([3]; 250 ppm or more, 45° C. for 3 days): no colonies were detected
detected level of colonies ([4]; 10 ppm in YSG agar): ++
detected level of colonies ([4]; 50 ppm in YSG agar): −
detected level of colonies ([4]; 75 ppm in YSG agar): −
colonies detected ([4]; 75 ppm): no colony was detected
detected level of colonies ([4]; 100 ppm in YSG agar): −
colonies detected ([4]; 100 ppm): no colony was detected
detected level of colonies ([4]; 150 ppm in YSG agar): −
detected level of colonies ([4]; 200 ppm in YSG agar): −
detected level of colonies ([4]; 225 ppm in YSG agar): −
detected level of colonies ([4]; 250 ppm in YSG agar): −
detected level of colonies ([5]; 10 ppm in YSG agar): ++
detected level of colonies ([5]; 50 ppm in YSG agar): −
detected level of colonies ([5]; 75 ppm in YSG agar): −
colonies detected ([5]; 75 ppm): no colony was detected
detected level of colonies ([5]; 100 ppm in YSG agar): −
colonies detected ([5]; 100 ppm): no colony was detected
detected level of colonies ([5]; 150 ppm in YSG agar): −
detected level of colonies ([5]; 200 ppm in YSG agar): −
detected level of colonies ([5]; 225 ppm in YSG agar): −
detected level of colonies ([5]; 250 ppm in YSG agar): −

COc1cc(C=O)ccc1O [vanillin]
detected level of colonies ([1]; 500 ppm in YSG agar): +
detected level of colonies ([1]; 750 ppm in YSG agar): +
detected level of colonies ([1]; 900 ppm in YSG agar): +
detected level of colonies ([1]; 950 ppm in YSG agar): −
detected level of colonies ([1]; 1000 ppm in YSG agar): −
detection sensitivity compared to the medium without any substrate ([2]; 750 ppm): improved
number of colonies at 30° C. for 5 days compared with 45° C. for 3 days [2, 6]: The same tendency was observed
detected level of colonies ([3]; 500 ppm in YSG agar): ++
detected level of colonies ([3]; 750 ppm in YSG agar): ++
detected level of colonies ([3]; 900 ppm in YSG agar): ++
detected level of colonies ([3]; 950 ppm in YSG agar): ++
detected level of colonies ([3]; 1000 ppm in YSG agar): +
detected level of colonies ([4]; 500 ppm in YSG agar): −
detected level of colonies ([4]; 750 ppm in YSG agar): −
detected level of colonies ([4]; 900 ppm in YSG agar): −
detected level of colonies ([4]; 950 ppm in YSG agar): −
detected level of colonies ([4]; 1000 ppm in YSG agar): −
detected level of colonies ([5]; 500 ppm in YSG agar): −
detected level of colonies ([5]; 750 ppm in YSG agar): −
detected level of colonies ([5]; 900 ppm in YSG agar): −
detected level of colonies ([5]; 950 ppm in YSG agar): −
detected level of colonies ([5]; 1000 ppm in YSG agar): −
